# Assay results published in patent US20150147417A1, “METHOD AND PHARMACEUTICAL COMPOSITION FOR LIVER FIBROSIS PREVENTION AND/OR TREATMENT” (National Dong Hua University, priority 2013, published 2015).
# Key:
# Type in all cases: cell-based, male Sprague-Dawley rat
# [1] = test system: NHSC (non-induced hepatic stellate cells); test: Oil red O staining of lipid droplets; conditions: curcumin 25 μM, 12 and 24 h, compared to BL extract treated cells
# Description: (§1) Non-induced hepatic stellate cells (NHSC, purity >95%) were isolated from male Sprague-Dawley rat liver, and Thioacetamide (TAA; Fluka Chemie GmbH, Buchs, Switzerland)-induced hepatic stellate cells (THSC, purity >95%) were isolated from TAA-induced fibrotic liver of male Sprague-Dawley rat (Chang et al., 2009). Both cells were maintained in complete DMEM containing 10% heat-inactivated FBS and 1% penicillin/streptomycin. NHSC and THSC cells (1×10^5 cells) were seeded in 6 well plates and incubated at 37° C. overnight. Then, cells were treated with various concentrations of BL extract (100, 250, and 500 μg/ml) or curcumin (25 μM) for 12 and 24 h. Cells were washed twice with PBS and fixed with pre-warmed 3.7% paraformaldehyde for 10 min. Cells were then stained with diluted Oil red O stock solution 0.5% (w/v) in isopropanol (Fluka; buffer/water=3/2) at room temperature for 1 h under the dark. Cells were washed with 50% isopropanol and counter-stained with Hematoxylin (Sigma-Aldrich) for 1 min. Results were photographed using Olympus CKX-41 (Olympus Corporation, Tokyo, Japan). Two kinds of hepatic stellate cells were used; that is, Non-chemical induced hepatic stellate cells (NHSC), and thioacetamide-induced hepatic stellate cells (THSC) for imitating a naturally-occurred activated HSC. […]
# [2] = test system: THSC (thioacetamide-induced hepatic stellate cells); test: Oil red O staining of lipid droplets; conditions: curcumin 25 μM, 12 and 24 h, compared to BL extract treated cells
# Description: as §1
# [3] = test system: NHSC; test: Western blotting of protein expression levels; conditions: curcumin 25 μM
# Description: (§2) Non-induced hepatic stellate cells (NHSC, purity >95%) were isolated from male Sprague-Dawley rat liver, and Thioacetamide (TAA; Fluka Chemie GmbH, Buchs, Switzerland)-induced hepatic stellate cells (THSC, purity >95%) were isolated from TAA-induced fibrotic liver of male Sprague-Dawley rat (Chang et al., 2009). Both cells were maintained in complete DMEM containing 10% heat-inactivated FBS and 1% penicillin/streptomycin. NHSC and THSC (5×10^5 cells) were seeded in 6 cm dish and grown till 80% confluence, and then incubated with various concentrations of BL extract (100, 250, and 500 μg/ml) or curcumin (25 μM) for 12 and 24 h. Cells were collected and lysed with RIPA buffer (150 mM NaCl, 0.1% Triton X-100, 0.5% sodium deoxycholate, 0.1% SDS, 50 mM Tris-HCl, pH 8.0). Protease inhibitor (Roche Applied Science, Mannheim, Germany) containing pancreas extract, thermolysin, chymotrypsin, trypsin, and papain was mixed with 50 ml RIPA buffer before use. Protein samples (30 μg/well) were loaded and separated with SDS-PAGE, and then transferred to PVDF membrane (PerkinElmer, Turku, Finland). The membrane was blocked with 5% non-fat milk in TBST (20 mM Tris-HCl, pH 7.4, 137 mM NaCl, and 0.05% Tween-20) at room temperature for 1 h. The membranes were incubated with primary antibodies (Table 1) at 4° C. overnight. The membranes were washed 3 times with TBST and then incubated with horseradish peroxidase (HRP)-conjugated secondary antibodies at room temperature for 1 h. Following incubation with HRP-conjugated secondary antibodies, membranes were treated with ECL reagents (PerkinElmer) for 1 min, and results were developed on LAS-3000 film (Fujifilm, Tokyo, Japan).
# [4] = test system: THSC; test: Western blotting of protein expression levels; conditions: curcumin 25 μM
# Description: as §2
# [5] = test system: MMP2; test: MMP2 level (gelatin zymography) in NHSC; conditions: curcumin 25 μM
# Description: (§3) Protein expression level was determined by western blotting and normalized with β-actin. Data are normalized to normal control (N) and expressed as mean±SEM in triplicate determinations. a, vs. N; b, vs. Cur. *, p<0.05; **, p<0.01; ***, p<0.001. Non-induced hepatic stellate cells (NHSC, purity >95%) were isolated from male Sprague-Dawley rat liver, and Thioacetamide (TAA; Fluka Chemie GmbH, Buchs, Switzerland)-induced hepatic stellate cells (THSC, purity >95%) were isolated from TAA-induced fibrotic liver of male Sprague-Dawley rat (Chang et al., 2009). Both cells were maintained in complete DMEM containing 10% heat-inactivated FBS and 1% penicillin/streptomycin. The activity of MMP2 was assayed by gelatine zymography, which can detect the active form and latent form of MMP2. NHSC and THSC (2×10^5 cells) were seeded in 6 well plates and incubated for 70 to 80% confluence. Cells were starved in DMEM containing 0.1% BSA for 6 h, and then treated with various concentrations of BL extract (100, 250, and 500 μg/ml) or curcumin (25 μM) for 12 and 24 h. Media were collected and centrifuged at 12,000×g for 30 min at 4° C. The supernatants were collected and protein concentration was quantified by Bradford dye (Bio-Rad). 8% SDS-PAGE gels were prepared containing 10% gelatin. […] Gels were scanned using Epson scanner and quantified using multi-gauge software (Fujifilm).
# [6] = test system: MMP2; test: MMP2 level (gelatin zymography) in THSC; conditions: curcumin 25 μM, except 24 h treatment
# Description: as §3
compound,measurement,setting,value
COc1cc(/C=C/C(=O)CC(=O)/C=C/c2ccc(O)c(OC)c2)ccc1O [curcumin],lipid droplets (Oil red O),[1],Fewer lipid droplets were increased
same,lipid droplets (Oil red O),[2],Fewer lipid droplets were increased
same,Col 1 expression level,[3],failed to reduce
same,TGF-β1 level,[3],cannot reduce
same,TGF-β R1 level,[3],significantly reduced
same,α-SMA expression level,[3],failed to reduce
same,expression level of TIMP2,"[3]; 24 h, vs normal control",significantly reduced
same,expression level of TIMP2,"[4]; 24 h, vs normal control",significantly reduced
same,Col 1 expression level,[4]; except 24 h treatment,failed to reduce
same,TGF-β1 level,[4]; except 24 h treatment,cannot reduce
same,α-SMA expression level,[4]; except 24 h treatment,failed to reduce
same,expression level of MMP2,[5],can reduce
same,expression level of MMP2,[6],can reduce
